Assays:
[1] = target: T1, Alpha-2A adrenergic receptor (Homo sapiens, UniProt P08913); assay type: cell membranes, Sf9, Membrane; conditions: sf9; also: in other assays of this panel Not Active means under 50% inhibition at 10 µM
T1 sequence (P08913 whole entry): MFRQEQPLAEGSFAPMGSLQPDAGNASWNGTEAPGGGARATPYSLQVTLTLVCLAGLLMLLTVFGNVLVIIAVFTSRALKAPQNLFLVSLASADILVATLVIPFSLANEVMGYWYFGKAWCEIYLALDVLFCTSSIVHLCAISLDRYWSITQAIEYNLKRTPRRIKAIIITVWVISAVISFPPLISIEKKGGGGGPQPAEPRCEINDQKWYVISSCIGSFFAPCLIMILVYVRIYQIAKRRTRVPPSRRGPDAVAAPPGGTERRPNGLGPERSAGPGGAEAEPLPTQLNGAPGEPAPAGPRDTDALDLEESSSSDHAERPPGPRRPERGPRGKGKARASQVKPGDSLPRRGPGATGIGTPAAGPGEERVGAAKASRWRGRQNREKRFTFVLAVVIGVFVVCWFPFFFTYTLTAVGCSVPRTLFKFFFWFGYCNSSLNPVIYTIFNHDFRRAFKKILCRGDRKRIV

[2] = target: T2, 3-hydroxy-3-methylglutaryl-coenzyme A reductase (Homo sapiens, UniProt P04035); parameters: species or system Escherichia coli;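 also: enzyme inhibition assay of HMG-CoA reductase using radiolabeled [14C]HMG-CoA as substrate; in other assays of this panel Not Active means under 50% inhibition at 10 µM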
T2 sequence (P04035 whole entry): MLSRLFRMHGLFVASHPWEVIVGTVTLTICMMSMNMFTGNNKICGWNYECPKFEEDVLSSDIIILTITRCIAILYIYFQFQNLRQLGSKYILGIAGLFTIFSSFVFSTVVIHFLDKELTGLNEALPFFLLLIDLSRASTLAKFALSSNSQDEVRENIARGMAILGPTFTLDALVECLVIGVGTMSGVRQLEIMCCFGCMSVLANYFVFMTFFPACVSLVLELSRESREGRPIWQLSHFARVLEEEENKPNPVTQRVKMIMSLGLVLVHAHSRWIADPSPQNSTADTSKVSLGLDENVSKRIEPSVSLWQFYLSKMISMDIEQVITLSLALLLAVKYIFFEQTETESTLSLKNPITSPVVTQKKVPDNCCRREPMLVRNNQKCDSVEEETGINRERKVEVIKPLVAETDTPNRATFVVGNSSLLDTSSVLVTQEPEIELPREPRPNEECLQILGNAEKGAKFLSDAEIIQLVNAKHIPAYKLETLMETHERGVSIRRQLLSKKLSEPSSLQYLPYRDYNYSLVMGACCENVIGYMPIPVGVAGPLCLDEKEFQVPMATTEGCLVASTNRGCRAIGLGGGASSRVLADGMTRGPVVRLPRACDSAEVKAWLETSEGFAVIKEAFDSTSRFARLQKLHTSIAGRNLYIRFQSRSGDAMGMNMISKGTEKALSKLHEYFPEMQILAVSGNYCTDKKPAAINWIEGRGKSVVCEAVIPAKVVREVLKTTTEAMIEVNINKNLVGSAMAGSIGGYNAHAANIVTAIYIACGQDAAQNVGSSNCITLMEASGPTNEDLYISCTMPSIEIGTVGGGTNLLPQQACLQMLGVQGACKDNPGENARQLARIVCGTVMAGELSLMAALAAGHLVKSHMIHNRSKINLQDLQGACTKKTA

Acetylcholinesterase = Acetylcholinesterase (Homo sapiens, UniProt P22303); assay: DRUGMATRIX: Acetylcholinesterase enzyme inhibition (substrate: acetylthiocholine); assay type: cell-based, HEK293; conditions: Not Active = under 50% inhibition at 10 µM
[3] = target: T3, Amine oxidase [flavin-containing] A (Homo sapiens, UniProt P21397); assay: DRUGMATRIX: Monoamine Oxidase MAO-A enzyme inhibition (substrate: Kynuramine); parameters: species or system BTI-TN-5B1-4; conditions: bti-tn-5b1-4; Not Active = under 50% inhibition at 10 µM
T3 sequence (P21397 whole entry): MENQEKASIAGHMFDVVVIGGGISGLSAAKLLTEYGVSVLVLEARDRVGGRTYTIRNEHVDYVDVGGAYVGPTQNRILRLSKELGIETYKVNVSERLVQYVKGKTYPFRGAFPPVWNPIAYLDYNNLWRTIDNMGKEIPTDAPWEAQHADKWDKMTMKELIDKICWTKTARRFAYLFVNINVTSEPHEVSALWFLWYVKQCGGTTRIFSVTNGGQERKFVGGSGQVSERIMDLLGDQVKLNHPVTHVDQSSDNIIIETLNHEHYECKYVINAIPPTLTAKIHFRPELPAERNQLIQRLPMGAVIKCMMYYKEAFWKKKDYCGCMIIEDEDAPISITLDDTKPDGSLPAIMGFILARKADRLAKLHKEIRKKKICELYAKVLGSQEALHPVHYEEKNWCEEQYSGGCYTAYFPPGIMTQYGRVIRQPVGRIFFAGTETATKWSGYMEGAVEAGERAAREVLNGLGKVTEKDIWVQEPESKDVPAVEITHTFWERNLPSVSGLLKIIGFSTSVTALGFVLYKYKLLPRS

Histamine H2 receptor = Histamine H2 receptor (Homo sapiens, UniProt P25021); assay type: cell membranes, CHO-K1, Membrane; conditions: cho-k1; also: in other assays of this panel Not Active means under 50% inhibition at 10 µM
Cytochrome P450 2A6 = target: T4, Cytochrome P450 2A6 (Homo sapiens, UniProt P11509); conditions: bti-tn-5b1-4; also: in other assays of this panel Not Active means under 50% inhibition at 10 µM
T4 sequence (P11509 whole entry): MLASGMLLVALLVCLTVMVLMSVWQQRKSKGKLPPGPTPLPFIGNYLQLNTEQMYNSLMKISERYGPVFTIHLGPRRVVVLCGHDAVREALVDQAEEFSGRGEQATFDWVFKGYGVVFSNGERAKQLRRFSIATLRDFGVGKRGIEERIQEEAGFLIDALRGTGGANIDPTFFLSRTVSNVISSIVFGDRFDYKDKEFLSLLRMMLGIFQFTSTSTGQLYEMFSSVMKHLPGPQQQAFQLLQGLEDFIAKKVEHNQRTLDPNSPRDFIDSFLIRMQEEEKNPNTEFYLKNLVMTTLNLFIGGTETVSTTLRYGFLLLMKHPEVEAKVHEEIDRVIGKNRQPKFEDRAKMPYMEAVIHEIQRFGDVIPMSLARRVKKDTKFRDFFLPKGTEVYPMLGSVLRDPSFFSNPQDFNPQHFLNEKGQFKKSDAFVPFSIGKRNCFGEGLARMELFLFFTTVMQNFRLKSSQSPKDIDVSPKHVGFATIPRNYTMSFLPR

Sequence of Histamine H2 receptor (P25021 whole entry): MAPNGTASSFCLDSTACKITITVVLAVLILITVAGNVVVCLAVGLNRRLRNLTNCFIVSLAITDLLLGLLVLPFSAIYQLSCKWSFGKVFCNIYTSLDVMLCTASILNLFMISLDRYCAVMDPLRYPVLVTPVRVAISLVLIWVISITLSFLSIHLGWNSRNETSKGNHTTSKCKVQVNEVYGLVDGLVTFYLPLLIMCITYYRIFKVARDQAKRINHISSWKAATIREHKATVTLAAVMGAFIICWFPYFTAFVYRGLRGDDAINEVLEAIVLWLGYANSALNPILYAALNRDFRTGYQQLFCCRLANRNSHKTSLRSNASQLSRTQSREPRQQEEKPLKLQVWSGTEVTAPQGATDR
Sequence of Acetylcholinesterase (P22303 whole entry): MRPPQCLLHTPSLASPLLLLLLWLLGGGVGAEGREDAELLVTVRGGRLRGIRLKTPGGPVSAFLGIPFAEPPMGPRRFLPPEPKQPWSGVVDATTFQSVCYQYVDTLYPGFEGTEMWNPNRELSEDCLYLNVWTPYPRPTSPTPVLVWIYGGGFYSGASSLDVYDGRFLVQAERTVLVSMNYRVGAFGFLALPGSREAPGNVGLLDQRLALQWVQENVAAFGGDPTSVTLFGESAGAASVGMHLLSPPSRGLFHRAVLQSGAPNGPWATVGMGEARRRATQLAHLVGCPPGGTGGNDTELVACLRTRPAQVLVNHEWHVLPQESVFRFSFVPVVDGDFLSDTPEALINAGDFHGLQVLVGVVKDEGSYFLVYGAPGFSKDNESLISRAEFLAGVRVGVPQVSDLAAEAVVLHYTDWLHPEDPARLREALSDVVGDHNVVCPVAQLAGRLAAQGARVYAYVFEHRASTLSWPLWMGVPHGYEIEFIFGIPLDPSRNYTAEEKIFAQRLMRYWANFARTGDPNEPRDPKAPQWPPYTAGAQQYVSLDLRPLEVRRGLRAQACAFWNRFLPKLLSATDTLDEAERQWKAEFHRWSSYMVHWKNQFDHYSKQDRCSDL

| Molecule | IC50 [1] | IC50 [2] | IC50 (Acetylcholinesterase; hek293) | IC50 [3] | IC50 (Histamine H2 receptor) | IC50 (Cytochrome P450 2A6) | Ki (Cytochrome P450 2A6) | IC50 (Acetylcholinesterase; read-out: IC50) [µM] | Ki [1] | Ki [2] | Ki (Acetylcholinesterase; hek293) | Ki [3] | Ki (Histamine H2 receptor) |
| --- | --- | --- | --- | --- | --- | --- | --- | --- | --- | --- | --- | --- | --- |
| CN(Cc1cnc2nc(N)nc(N)c2n1)c1ccc(C(=O)N[C@@H](CCC(=O)O)C(=O)O)cc1 [METHOTREXATE] | Not Active | Not Active | Not Active | Not Active | Not Active | Not Active | Not Active |  |  |  |  |  |  |
| COC(=O)c1ccccc1O [METHYL SALICYLATE] | Not Active | Not Active | Not Active | Not Active | Not Active | Not Active | Not Active |  |  |  |  |  |  |
| O=C(O)c1cccnc1 [NIACIN] | Not Active | Not Active | Not Active | Not Active | Not Active | Not Active | Not Active |  |  |  |  |  |  |
| CNC(=C[N+](=O)[O-])NCCSCc1csc(CN(C)C)n1 [NIZATIDINE] | Not Active | Not Active |  | Not Active | Not Active | Not Active | Not Active | 5.61 |  |  |  |  |  |
| C[C@]12C/C(=C/O)C(=O)C[C@@H]1CC[C@@H]1[C@@H]2CC[C@@]2(C)[C@H]1CC[C@]2(C)O [OXYMETHOLONE] | Not Active | Not Active | Not Active | Not Active | Not Active | Not Active | Not Active |  |  |  |  |  |  |
| CC(C)(CO)C(O)C(=O)NCCCO (stereo not drawn) [PANTHENOL] | Not Active | Not Active | Not Active | Not Active | Not Active | Not Active | Not Active |  |  |  |  |  |  |
| COc1ccc(Cc2nccc3cc(OC)c(OC)cc23)cc1OC [PAPAVERINE] | Not Active | Not Active | Not Active | Not Active | Not Active | Not Active | Not Active |  |  |  |  |  |  |
| OCCN1CCN(CCCN2c3ccccc3Sc3ccc(Cl)cc32)CC1 [PERPHENAZINE] | Not Active | Not Active | Not Active | Not Active | Not Active | Not Active | Not Active |  |  |  |  |  |  |
| CCCCC1C(=O)N(c2ccccc2)N(c2ccccc2)C1=O [PHENYLBUTAZONE] | Not Active | Not Active | Not Active | Not Active | Not Active | Not Active | Not Active |  |  |  |  |  |  |
| Cc1cccc(Nc2cc(Cl)nc(SCC(=O)O)n2)c1C [PIRINIXIC ACID] | Not Active | Not Active | Not Active | Not Active | Not Active | Not Active | Not Active |  |  |  |  |  |  |
| CC(C)(Sc1cc(C(C)(C)C)c(O)c(C(C)(C)C)c1)Sc1cc(C(C)(C)C)c(O)c(C(C)(C)C)c1 [PROBUCOL] | Not Active | Not Active | Not Active | Not Active | Not Active | Not Active | Not Active |  |  |  |  |  |  |
| COBALT(II) ACETYLACETONATE | Not Active | Not Active | Not Active | Not Active | Not Active | Not Active | Not Active |  | Not Active | Not Active | Not Active | Not Active | Not Active |
| INSULIN HUMAN | Not Active | Not Active | Not Active | Not Active | Not Active | Not Active | Not Active |  | Not Active | Not Active | Not Active | Not Active | Not Active |
| POLYVINYL ALCOHOL | Not Active | Not Active | Not Active | Not Active | Not Active | Not Active | Not Active |  | Not Active | Not Active | Not Active | Not Active | Not Active |

Source: ChEMBL document CHEMBL1909046, “DrugMatrix in vitro pharmacology data”
